Assay results reported in US20060154932A1, “Pharmaceutical compositions and method of treating parkinson's disease” (priority 2002, published 2006).

Assays:
Parkinson's disease [1] = conditions: cited from earlier work
Parkinson's disease [2] = assay: Patient-reported tremor in a Parkinson's disease patient; type: in vivo, human; conditions: VIOXX 25 mg once a day added to Endo L-C 100-25 TID
Protocol: Patient 8 (person one), an adult, was diagnosed as having Parkinson's disease. After evaluation the patient was prescribed Endo L-C 100-25, TID. Approximately three years later, the patient began taking VIOXX (25 mg) once a day. After three weeks, patient noticed that severity of tremors had decreased and the frequency between the tremors had increased. In addition, night time tremors, those associated with sleeping, had dramatically subsided (i.e. by up to 90%). Overall, the patient reports that the tremors have subsided nearly 40%.

Parkinson's disease [3] = assay: Unified Parkinson's Disease Rating Scale (UPDRS) Part III motor examination of a patient; type: in vivo, human; conditions: Patient 1
Protocol: Patent 1, a person, was administered Part III (motor examination) of the Unified Parkinson's Disease Rating Scale (hereinunder abbreviated as UPDRS) and diagnosed as having Parkinson=3 s disease (scoring a 20 in the test). After a period of evaluation of drug therapy options, the patient was prescribed pergolide, 0.25 mg tid and selegiline 5 mg po. After six (6) months on drug therapy, the patient was once again examined with the UPDRS motor subset and scored 16.5. After three (3) months on the drug, 25 mg of VIOXX, once a day was added to the treatment regime. After four (4) additional months, the patient was once again administered the UPDRS, this time scoring a 6.0. After six (6) months on the VIOXX tripartite therapy, the patient was again administered the UPDRS motor examination and scored 4.0. (see Fahn S, Elton R L, Members of the UPDRS Development Committee. Unified Parkinson's disease rating scale. In: Fahn S, Marsden C D, Calne D, Goldstein M, eds. Recent developments in Parkinson=3 s disease, Vol II. Florham Park, N.J.: Macmillan Healthcare Information, 1987:153-163, 293-304): […]

C#CCN(C)[C@H](C)Cc1ccccc1 [Selegiline, selegiline]
delay of the initiation of levodopa (Parkinson's disease [1]; used as initial treatment): about 1 yr

NC12CC3CC(CC(C3)C1)C2 [Amantadine, amantadine]
patients for whom useful in treating early, mild parkinsonism (Parkinson's disease [1]; 100 to 300 mg/day po): 50%

N[C@@H](Cc1ccc(O)c(O)c1)C(=O)O [levodopa]
patients beginning to experience fluctuations in their response (wearing off or on-off effect) (Parkinson's disease [1]; after 2 to 5 yr of treatment): > 50%

CS(=O)(=O)c1ccc(C2=C(c3ccccc3)C(=O)OC2)cc1 [VIOXX, rofecoxib]
severity of tremors (Parkinson's disease [2]; Patient 8 (person one), after three weeks): decreased | night time tremors (associated with sleeping) subsided (Parkinson's disease [2]; Patient 8): up to 90% | tremors subsided overall (patient report) (Parkinson's disease [2]; Patient 8): ~40% | frequency between the tremors (Parkinson's disease [2]; Patient 8, after three weeks): increased | UPDRS score (Parkinson's disease [3]; 25 mg VIOXX once a day added to pergolide and selegiline, after four additional months): 6.0 | UPDRS motor examination score (Parkinson's disease [3]; after six months on the VIOXX tripartite therapy (VIOXX 25 mg once a day, pergolide, selegiline)): 4.0
